Assay: Test of compactability of different sugar alcohols (crushing strength vs compression force)
Format: physicochemical
Conditions: pure sugar alcohol compacts, single punch press, punch and die lubricated with magnesium stearate; FIG. 1
Method: Tablets comprising either Neosorb P100T, Sorbidex P1666BO, Isomalt ST-PF, Maltisorb P90, Mannitol 60 or Xylitol CM50 were compressed on an instrumented Fette Exacta 1/F single punch tablet press, only maximum compression force on the upper punch was recorded.
Before the compression of each tablet the punch tips and the die bore were lubricated with a 5% suspension of magnesium stearate in acetone. The acetone was allowed to evaporate before compression of the tablet.
The sugar alcohol was weighed, transferred to the die bore and then compressed, see table 1. Immediately after ejection the tablet was tested for crushing strength.
From FIG. 1 (each point is the average of three measurements) it is seen that the assumption was correct. Therefore, test of particle size was not repeated for the other sugar alcohols.
The tabletting machine used is equipped with data acquisition that as a minimum measure the compaction force applied. However, any tabletting machine may be used provided the compaction force applied can be measured.
The crushing strength has been measured by use of a Schleuniger-2E from the company Dr. Schleuniger and determined as the mean of measuring the crushing strength for 10 individual tablets.

Compound | compactability (slope of the correlation between compression force and crushing strength)
OC[C@@H](O)[C@@H](O[C@H]1O[C@H](CO)[C@@H](O)[C@H](O)[C@H]1O)[C@H](O)[C@@H](O)CO [Maltitol] | very poor compactability
OC[C@@H](O)[C@@H](O)[C@H](O)[C@H](O)CO [mannitol, Mannitol] | very poor compactability
Isomalt | Sorbitol is followed by isomalt

The next lines start with the values.

compactability (slope of the correlation between compression force and crushing strength) | Compound
best compactability | OC[C@@H](O)[C@@H](O)[C@H](O)[C@@H](O)CO [sorbitol, Sorbitol]
very poor compactability | OC[C@@H](O)[C@H](O)[C@@H](O)CO [xylitol, Xylitol]

Same assay, conditions: two mean particle sizes, 38 μm and 110 μm; FIG. 1

Compound | tablet crushing strength, dependence on particle size
OC[C@@H](O)[C@@H](O)[C@H](O)[C@@H](O)CO [sorbitol, Sorbitol] | independent of particle size

Reference: patent publication US9101565B2, “Dissolution stability of calcium carbonate tablets” (TAKEDA NYCOMED AS, priority 2008, dated 2015)
